Measured values: PubChem BioAssay (NCI)
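Dose response: 5 concentrations. Exposure: 48 h. Format: 96-well plates. Endpoint: linear interpolation; highest concentration if not reached. TGI denotes the concentration required for complete inhibition of growth.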

How the values were obtained:
Experiment in all cases: NCI anticancer screen, dose series, 48 h
[1] = test system: SW-620 colon
[2] = test system: SF-295 CNS
[3] = test system: SNB-75 CNS
[4] = test system: U251 CNS
[5] = test system: LOX IMVI melanoma
[6] = test system: HOP-18 NSCLC
[7] = test system: SNB-78 CNS
[8] = test system: HL-60(TB) leukemia
[9] = test system: RPMI-8226 leukemia
[10] = test system: SK-MEL-2 melanoma
[11] = test system: CAKI-1 renal
[12] = test system: TK-10 renal
[13] = test system: LXFL 529 NSCLC
[14] = test system: COLO 205 colon
[15] = test system: A549 NSCLC
[16] = test system: SF-268 CNS
[17] = test system: OVCAR-8 ovarian
[18] = test system: SK-MEL-28 melanoma
[19] = test system: KM20L2 colon
[20] = test system: SK-OV-3 ovarian
[21] = test system: NCI-H522 lung
[22] = test system: RXF-631 renal
[23] = test system: DLD-1 colon
[24] = test system: CCRF-CEM leukemia
[25] = test system: OVCAR-4 ovarian
[26] = test system: HCT-116 colon
[27] = test system: ACHN renal
[28] = test system: OVCAR-5 ovarian
[29] = test system: M19-MEL melanoma
[30] = test system: SN12C renal
[31] = test system: HT29 colon
[32] = test system: HCC-2998 colon
[33] = test system: RXF 393 renal
[34] = test system: SNB-19 CNS
[35] = test system: IGROV1 ovarian
[36] = test system: MOLT-4 leukemia
[37] = test system: SF-539 CNS
[38] = test system: MALME-3M melanoma
[39] = test system: SK-MEL-5 melanoma
[40] = test system: NCI-H460 lung
[41] = test system: UO-31 renal
[42] = test system: UACC-62 melanoma
[43] = test system: HOP-62 NSCLC
[44] = test system: HOP-92 NSCLC
[45] = test system: NCI-H23 lung
[46] = test system: EKVX NSCLC
[47] = test system: HCT-15 colon
[48] = test system: OVCAR-3 ovarian
[49] = test system: SR leukemia
[50] = test system: 786-0 renal
[51] = test system: K-562 leukemia
[52] = test system: NCI-H226 lung
[53] = test system: A498 renal
[54] = test system: UACC-257 melanoma
[55] = test system: M14 melanoma
[56] = test system: KM12 colon
[57] = test system: DMS 273 small cell lung
[58] = test system: XF 498 CNS
[59] = test system: DMS 114 small cell lung

Structure (SMILES): CC(C)(C)C#C[P+](c1ccccc1)(c1ccccc1)c1ccccc1
- TGI [1]: 0.843 µM
- TGI [2]: 1.49 µM
- TGI [3]: 0.553 µM
- TGI [4]: 1.32 µM
- TGI [5]: 1.4 µM
- TGI [6]: 6.34 µM
- TGI [7]: 1.35 µM
- TGI [8]: 0.0865 µM
- TGI [9]: 0.212 µM
- TGI [10]: 1.45 µM
- TGI [11]: 2.91 µM
- TGI [12]: 3.48 µM
- TGI [13]: 0.67 µM
- TGI [14]: 0.397 µM
- TGI [15]: 1.91 µM
- TGI [16]: 1.48 µM
- TGI [17]: 1.67 µM
- TGI [18]: 1.46 µM
- TGI [19]: 1.19 µM
- TGI [20]: 1.81 µM
- TGI [21]: 0.448 µM
- TGI [22]: 2.63 µM
- TGI [23]: 2.5 µM
- TGI [24]: 0.699 µM
- TGI [25]: 1.42 µM
- TGI [26]: 0.95 µM
- TGI [27]: 10.3 µM
- TGI [28]: 2.4 µM
- TGI [29]: 1.14 µM
- TGI [30]: 0.877 µM
- TGI [31]: 1.11 µM
- TGI [32]: 0.986 µM
- TGI [33]: 1.37 µM
- TGI [34]: 1.51 µM
- TGI [35]: 2.23 µM
- TGI [36]: 1.57 µM
- TGI [37]: 1.39 µM
- TGI [38]: 1.68 µM
- TGI [39]: 0.634 µM
- TGI [40]: 0.475 µM
- TGI [41]: 7.28 µM
- TGI [42]: 0.979 µM
- TGI [43]: 1.79 µM
- TGI [44]: 0.689 µM
- TGI [45]: 1.38 µM
- TGI [46]: 4.1 µM
- TGI [47]: 5.9 µM
- TGI [48]: 1.32 µM
- TGI [49]: 0.611 µM
- TGI [50]: 1.51 µM
- TGI [51]: 4.83 µM
- TGI [52]: 0.984 µM
- TGI [53]: 1.35 µM
- TGI [54]: 2.07 µM
- TGI [55]: 1.21 µM
- TGI [56]: 0.687 µM

Structure (SMILES): COC(=O)C(=O)C(C#N)c1cccc2ccccc12 (stereo not given)
- TGI [1]: > 100 µM
- TGI [2]: > 100 µM
- TGI [3]: > 100 µM
- TGI [4]: > 100 µM
- TGI [5]: > 100 µM
- TGI [6]: > 100 µM
- TGI [7]: > 100 µM
- TGI [8]: > 100 µM
- TGI [9]: > 100 µM
- TGI [11]: > 100 µM
- TGI [57]: > 100 µM
- TGI [13]: > 100 µM
- TGI [14]: > 100 µM
- TGI [15]: > 100 µM
- TGI [16]: > 100 µM
- TGI [58]: > 100 µM
- TGI [17]: > 100 µM
- TGI [18]: > 100 µM
- TGI [19]: > 100 µM
- TGI [20]: > 100 µM
- TGI [21]: > 100 µM
- TGI [23]: > 100 µM
- TGI [24]: > 100 µM
- TGI [25]: > 100 µM
- TGI [26]: > 100 µM
- TGI [27]: > 100 µM
- TGI [28]: > 100 µM
- TGI [29]: > 100 µM
- TGI [30]: > 100 µM
- TGI [31]: > 100 µM
- TGI [32]: > 100 µM
- TGI [34]: > 100 µM
- TGI [35]: > 100 µM
- TGI [36]: > 100 µM
- TGI [37]: > 100 µM
- TGI [38]: > 100 µM
- TGI [39]: > 100 µM
- TGI [41]: > 100 µM
- TGI [42]: > 100 µM
- TGI [59]: > 100 µM
- TGI [43]: > 100 µM
- TGI [44]: > 100 µM
- TGI [45]: > 100 µM
- TGI [46]: > 100 µM
- TGI [47]: > 100 µM
- TGI [48]: > 100 µM
- TGI [49]: > 100 µM
- TGI [50]: > 100 µM
- TGI [51]: > 100 µM
- TGI [52]: > 100 µM
- TGI [53]: > 100 µM
- TGI [54]: > 100 µM
- TGI [55]: > 100 µM
- TGI [56]: 99.7 µM

Structure (SMILES): CCOC(=O)C(C(=O)c1ccccc1-c1ccccc1C(=O)O)=P(c1ccccc1)(c1ccccc1)c1ccccc1
- TGI [1]: > 100 µM
- TGI [2]: 88.8 µM
- TGI [3]: 47.8 µM
- TGI [4]: 36.8 µM
- TGI [5]: 40.8 µM
- TGI [8]: 57.5 µM
- TGI [9]: 78.9 µM
- TGI [10]: 40.3 µM
- TGI [57]: > 100 µM
- TGI [12]: > 100 µM
- TGI [13]: > 100 µM
- TGI [14]: 40.6 µM
- TGI [15]: > 100 µM
- TGI [16]: > 100 µM
- TGI [58]: 50.2 µM
- TGI [17]: > 100 µM
- TGI [18]: 33.3 µM
- TGI [19]: 59.5 µM
- TGI [22]: > 100 µM
- TGI [24]: 77.1 µM
- TGI [25]: 43.6 µM
- TGI [26]: 42 µM
- TGI [27]: > 100 µM
- TGI [29]: 72.8 µM
- TGI [30]: > 100 µM
- TGI [31]: > 100 µM
- TGI [32]: 47.7 µM
- TGI [33]: 73.1 µM
- TGI [34]: 92 µM
- TGI [35]: 47.3 µM
- TGI [36]: 79 µM
- TGI [37]: 35.3 µM
- TGI [38]: 66.9 µM
- TGI [39]: 29.6 µM
- TGI [40]: 39 µM
- TGI [42]: 33 µM
- TGI [59]: 54.4 µM
- TGI [43]: 40.5 µM
- TGI [45]: 40 µM
- TGI [46]: > 100 µM
- TGI [47]: 74.8 µM
- TGI [48]: 67 µM
- TGI [49]: 85.1 µM
- TGI [50]: > 100 µM
- TGI [51]: > 100 µM
- TGI [52]: 73.7 µM
- TGI [53]: 88.8 µM
- TGI [54]: 76.4 µM
- TGI [55]: > 100 µM

Structure (SMILES): CCS[C@H]1NC(=O)C1[C@H](C)O[Si](C)(C)C(C)(C)C (stereo not given in full)
- TGI [1]: > 100 µM
- TGI [2]: > 100 µM
- TGI [3]: > 100 µM
- TGI [4]: > 100 µM
- TGI [5]: > 100 µM
- TGI [6]: > 100 µM
- TGI [7]: > 100 µM
- TGI [9]: > 100 µM
- TGI [10]: > 100 µM
- TGI [11]: > 100 µM
- TGI [57]: > 100 µM
- TGI [12]: > 100 µM
- TGI [14]: > 100 µM
- TGI [15]: > 100 µM
- TGI [16]: > 100 µM
- TGI [58]: > 100 µM
- TGI [17]: > 100 µM
- TGI [18]: > 100 µM
- TGI [19]: > 100 µM
- TGI [23]: > 100 µM
- TGI [25]: > 100 µM
- TGI [26]: > 100 µM
- TGI [27]: > 100 µM
- TGI [28]: > 100 µM
- TGI [29]: > 100 µM
- TGI [30]: > 100 µM
- TGI [31]: > 100 µM
- TGI [33]: > 100 µM
- TGI [34]: > 100 µM
- TGI [35]: > 100 µM
- TGI [37]: > 100 µM
- TGI [38]: > 100 µM
- TGI [40]: > 100 µM
- TGI [42]: > 100 µM
- TGI [59]: > 100 µM
- TGI [43]: > 100 µM
- TGI [44]: > 100 µM
- TGI [45]: > 100 µM
- TGI [46]: > 100 µM
- TGI [47]: > 100 µM
- TGI [48]: > 100 µM
- TGI [50]: > 100 µM
- TGI [51]: > 100 µM
- TGI [53]: > 100 µM
- TGI [54]: > 100 µM
- TGI [56]: > 100 µM
